Patent US7199131B2, “Sulfonamide and sulfamide substituted imidazoquinolines” (3M Innovative Properties Company, priority 2001, dated 2007)

Key:
interferon (α) = test: Cytokine Induction in Human Cells: interferon (α) secreted by PBMCs, ELISA; assay type: cell-based; details: PBMC, incubated 18 to 24 hours, lowest concentration found to induce interferon
Excerpt: (§1) An in vitro human blood cell system was used to assess cytokine induction by compounds of the invention. Activity is based on the measurement of interferon and tumor necrosis factor (α) (IFN and TNF, respectively) secreted into culture media as described by Testerman et. al. In “Cytokine Induction by the Immunomodulators Imiquimod and S-27609”, Journal of Leukocyte Biology, 58, 365–372 (September, 1995).
(§2) Whole blood is collected by venipuncture into EDTA vacutainer tubes from healthy human donors. Peripheral blood mononuclear cells (PBMCs) are separated from whole blood by density gradient centrifugation using Histopaque®-1077 (Sigma Chemicals, St. Louis, Mo.). The PBMCs are suspended at 3–4×10^6 cells/mL in RPMI 1640 medium containing 10% fetal bovine serum, 2 mM L-glutamine and 1% penicillin/streptomycin solution (RPMI complete). The PBMC suspension is added to 48 well flat bottom sterile tissue culture plates (Costar, Cambridge, Mass. or Becton Dickinson Labware, Lincoln Park, N.J.) containing an equal volume of RPMI complete media containing test compound.
(§3) The compounds are solubilized in dimethyl sulfoxide (DMSO). The DMSO concentration should not exceed a final concentration of 1% for addition to the culture wells.
(§4) The solution of test compound is added at 60 μM to the first well containing RPMI complete and serial (three fold or ten fold) dilutions are made. The PBMC suspension is then added to the wells in an equal volume, bringing the test compound concentrations to the desired range. The final concentration of PBMC suspension is 1.5–2×10^6 cells/mL. The plates are covered with sterile plastic lids, mixed gently and then incubated for 18 to 24 hours at 37° C. in a 5% carbon dioxide atmosphere.
(§5) Following incubation the plates are centrifuged for 5–10 minutes at 1000 rpm (˜200×g) at 4° C. The cell culture supernatant is removed with a sterile polypropylene pipette and transferred to sterile polypropylene tubes. Samples are maintained at −30 to −70° C. until analysis. The samples are analyzed for interferon (α) and tumor necrosis factor (α) by ELISA
Interferon (α) concentration is determined by ELISA using a Human Multi-Species kit from PBL Biomedical Laboratories, New Brunswick, N.J.
(§6) The table below lists the lowest concentration found to induce interferon and the lowest concentration found to induce tumor necrosis factor for each compound.

[1] = system: tumor necrosis factor (α); test: Cytokine Induction in Human Cells: tumor necrosis factor (α) secreted by PBMCs, ELISA; assay type: cell-based; details: PBMC, incubated 18 to 24 hours, lowest concentration found to induce tumor necrosis factor
Excerpt: as §1, §2, §3, §4, §5
Tumor necrosis factor (α) (TNF) concentration is determined using ELISA kits available from Genzyme, Cambridge, Mass.; R&D Systems, Minneapolis, Minn.; or Pharmingen, San Diego, Calif.
as §6

| Structure (SMILES) | melting point | minimal effective concentration (interferon (α)) | minimal effective concentration [1] |
| --- | --- | --- | --- |
| COCCc1nc2c(N)nc3c(c2n1CCCNS(C)(=O)=O)CCCC3 [Example 259, N-{3-[4-amino-2-(2-methoxyethyl)-6,7,8,9-tetrahydro-1H-imidazo[4,5-c]quinolin-1-yl]propyl}methanesulfonamide] | 150 to 152 °C | 0.01 µM | 10 µM |
| CCOCc1nc2c(N)nc3c(c2n1CCCNS(C)(=O)=O)CCCC3 [Example 260, N-{3-[4-amino-2-(ethoxymethyl)-6,7,8,9-tetrahydro-1H-imidazo[4,5-c]quinolin-1-yl]propyl}methanesulfonamide] | 212 to 214 °C | 0.01 µM | 0.37 µM |
| CS(=O)(=O)NCCCn1c(CCCOc2ccccc2)nc2c(N)nc3ccccc3c21 [Example 261, N-{3-[4-amino-2-(3-phenoxypropyl)-1H-imidazo[4,5-c]quinolin-1-yl]propyl}methanesulfonamide] | 176 to 178 °C | > 30 µM | 10 µM |
| CS(=O)(=O)NCCCCn1c(CCCOc2ccccc2)nc2c(N)nc3ccccc3c21 [Example 262, N-{4-[4-amino-2-(3-phenoxypropyl)-1H-imidazo[4,5-c]quinolin-1-yl]butyl}methanesulfonamide] | 156.4 to 157.1 °C | > 30 µM | 10 µM |

More lines, main results first:

| melting point | Structure (SMILES) | minimal effective concentration (interferon (α)) | minimal effective concentration [1] |
| --- | --- | --- | --- |
| 187 to 188 °C | CCCCc1nc2c(N)nc3ccccc3c2n1CCNS(=O)(=O)c1ccc(C)cc1 [Example 264, N-[2-(4-amino-2-butyl-1H-imidazo[4,5-c]quinolin-1-yl)ethyl]-4-methylbenzenesulfonamide] | 1.11 µM | 1.11 µM |
| 210 to 211 °C | CCCCc1nc2c(N)nc3ccccc3c2n1CCNS(C)(=O)=O [Example 265, N-[2-(4-amino-2-butyl-1H-imidazo[4,5-c]quinolin-1-yl)ethyl]methanesulfonamide] | 0.01 µM | 0.04 µM |
| 173 to 176 °C | CCCCc1nc2c(N)nc3ccccc3c2n1CCCCN1CCCS1(=O)=O [Example 267, 2-butyl-1-[4-(1,1-dioxidoisothiazolidin-2-yl)butyl]-1H-imidazo[4,5-c]quinolin-4-amine] | 0.01 µM | 0.12 µM |
